Measured values taken from publication PMC9291665, “Discovery and SAR analysis of 5-chloro-4-((substituted phenyl)amino)pyrimidine bearing histone deacetylase inhibitors” (Journal of Enzyme Inhibition and Medicinal Chemistry, 2022).

Assays:
[1] = tested on: Hela nucleus extract containing a mixture of HDAC isoforms; experiment: HDAC enzyme inhibitory screening against Hela nucleus extract; type: biochemical; details: at concentration of 1.0 µM, mean of three experiments
Method: The synthesised molecules were firstly screened against Hela nucleus extract containing a mixture of HDAC isoforms.
All HDAC enzymes were purchased from BPS Bioscience. In short, 60 µL of recombinant HDAC enzyme solution was mixed with various concentrations of test compound (40 µL), and then incubated at 37 °C for 30 minutes. The reaction was terminated by adding 100 µL of imaging agent containing trypsin and trichostatin A (TSA). After standing for 20 min, the fluorescence intensity was measured at the excitation and emission wavelengths of 360 and 460 nm with a microplate reader. The inhibition rate was calculated from the fluorescence intensity readings of the test wells relative to the control wells, and the IC50 curve and value were determined by GraphPad Prism 6.0 software.

[2] = tested on: K562 cells; experiment: In vitro antiproliferative assay (CCK-8), K562; type: cell-based; details: Homo sapiens, at concentration of 1.0 µM, mean of three experiments, read-out: K562 percentage inhibitory rate
Method: (§1) The proliferation of cancer cells was tested by CCK-8 assay. Briefly, cells were seeded in 96-well plate with about 5 × 10^3 cells in each well. The cells were treated with tested compounds after 24 h of incubation. CCK-8 reagent ([…]) was added to each well after 72 h of incubation, and cells were incubated at 37 °C for 4 h. The light absorbance at 450 nm was measured by using an Opsys microplate reader (Dynex Technologies, Chantilly, VA, USA).

[3] = tested on: H3122; set-up: method as in PMID 17185414, PMID 27144831; details: cited from earlier work
[4] = tested on: H2228; set-up: method as in PMID 17185414, PMID 27144831; details: cited from earlier work
[5] = tested on: K562 cells; experiment: Cell apoptosis analysis by flow cytometry (Annexin V-BV421 / 7-AAD); details: 24 h, control 1.14%
Method: Cells were incubated with Annexin V-BV421 (Becton Dickinson, USA) and 7-AAD (Becton Dickinson, USA) double labelling for 30 min in the dark at room temperature and measured by flow cytometry (FACSAriaIII, Becton Dickinson, USA). The data was analysed using Flowjo-V10 software.

[6] = tested on: MDA-MB-468; experiment: In vitro antiproliferative assay (CCK-8), MDA-MB-468; type: cell-based; details: Homo sapiens, CCK-8, 72 h
Method: (§2) Compound L20 with good performances in both enzyme and K562 cell inhibitory tests were selected for further antiproliferative assay against various cell lines. K562, U266, U937, C6, Fadu, MDA-MB-231, MDA-MB-468, A549, A2780 and HepG2 cell lines were used in the cell-based anticancer evaluation of L20.
as §1, with “USA). Results are illustrated as percent of cell viability normalised to DMSO-treated control cells.” for “USA).”

[7] = tested on: MDA-MB-231; experiment: In vitro antiproliferative assay (CCK-8), MDA-MB-231; type: cell-based; details: Homo sapiens, CCK-8, 72 h
Method: as §2
as §1, with “USA). Results are illustrated as percent of cell viability normalised to DMSO-treated control cells.” for “USA).”

Row | SMILES | HDACs percentage inhibitory rate [1] | inhibition at 1 µM [2] | other results
1 | CCOc1ccc(Nc2nc(N3CCN(c4ccc(C(=O)NO)cc4)CC3)ncc2Cl)cc1 [Compound L8, 4–(4-(5-chloro-4-((4-ethoxyphenyl)amino)pyrimidin-2-yl)piperazin-1-yl)-N-hydroxybenzamide] | 49.32 ± 0.89% | 37.1 ± 1.54% | 
2 | COc1ccc(Nc2nc(N3CCN(c4ccc(C(=O)NO)cc4)CC3)ncc2Cl)cc1OC [Compound L7, 4–(4-(5-chloro-4-((3,4-dimethoxyphenyl)amino)pyrimidin-2-yl)piperazin-1-yl)-N-hydroxybenzamide] | 58.37 ± 1.55% | 63.9 ± 1.12% | 
3 | N#Cc1ccc(Nc2nc(N3CCN(c4ccc(C(=O)NO)cc4)CC3)ncc2Cl)cc1 [Compound L5, 4–(4-(5-chloro-4-((4-cyanophenyl)amino)pyrimidin-2-yl)piperazin-1-yl)-N-hydroxybenzamide] | 48.33 ± 0.64% | 31.51 ± 0.09% | 
4 | CC(C)S(=O)(=O)c1ccccc1Nc1nc(N2CCN(c3ccc(C(=O)NO)cc3)CC2)ncc1Cl [Compound L19, 4-(4-(5-chloro-4-((2-(isopropylsulfonyl)phenyl)amino)pyrimidin-2-yl)piperazin-1-yl)-N-hydroxybenzamide] | 44.91 ± 4.97% | 21.3 ± 0.65% | 
5 | O=C(NO)c1ccc(N2CCN(c3ncc(Cl)c(Nc4cccc(I)c4)n3)CC2)cc1 [Compound L16, 4-(4-(5-chloro-4-((3-iodophenyl)amino)pyrimidin-2-yl)piperazin-1-yl)-N-hydroxybenzamide] | 46.50 ± 4.74% | 37.1 ± 1.54% | 
6 | O=C(NO)c1ccc(N2CCN(c3ncc(Cl)c(Nc4cccc(Cl)c4)n3)CC2)cc1 [Compound L12, 4–(4-(5-chloro-4-((3-chlorophenyl)amino)pyrimidin-2-yl)piperazin-1-yl)-N-hydroxybenzamide] | 32.74 ± 0.38% | 50.6 ± 1.86% | 
7 | COc1cc(Nc2nc(N3CCN(c4ccc(C(=O)NO)cc4)CC3)ncc2Cl)cc(OC)c1OC [Compound L15, 4–(4-(5-chloro-4-((3,4,5-trimethoxyphenyl)amino)pyrimidin-2-yl)piperazin-1-yl)-N-hydroxybenzamide] | 58.15 ± 2.02% | 58.6 ± 2.01% | 
8 | Cc1cc(Nc2ncc(Cl)c(Nc3ccccc3S(=O)(=O)C(C)C)n2)c(OC(C)C)cc1C1CCNCC1 [Ceritinib] |  |  | GI50 [3]: 62 nM; GI50 [4]: 121 nM
9 | O=C(NO)c1ccc(N2CCN(c3ncc(Cl)c(Nc4ccc(F)c(Cl)c4)n3)CC2)cc1 [Compound L18, 4-(4-(5-chloro-4-((3-chloro-4-fluorophenyl)amino)pyrimidin-2-yl)piperazin-1-yl)-N-hydroxybenzamide] | 52.92 ± 2.00% | 31.3 ± 0.92% | 
10 | COc1cccc(Nc2nc(N3CCN(c4ccc(C(=O)NO)cc4)CC3)ncc2Cl)c1 [Compound L9, 4–(4-(5-chloro-4-((3-methoxyphenyl)amino)pyrimidin-2-yl)piperazin-1-yl)-N-hydroxybenzamide] | 55.28 ± 0.15% | 50.8 ± 2.92% | 
11 | COc1cc(Nc2nc(N3CCN(c4ccc(C(=O)NO)cc4)CC3)ncc2Cl)cc(OC)c1 [Compound L6, 4–(4-(5-chloro-4-((3,5-dimethoxyphenyl)amino)pyrimidin-2-yl)piperazin-1-yl)-N-hydroxybenzamide] | 59.74 ± 0.03% | 56.6 ± 0.11% | 
12 | O=C(NO)c1ccc(N2CCN(c3ncc(Cl)c(Nc4cccc(Br)c4)n3)CC2)cc1 [Compound L10, 4–(4–(4-((3-bromophenyl)amino)-5-chloropyrimidin-2-yl)piperazin-1-yl)-N-hydroxybenzamide] | 51.50 ± 2.03% | 31.6 ± 1.12% | 
13 | O=C(CCCCCCC(=O)Nc1ccccc1)NO [SAHA, Vorinostat, reference compound] |  |  | apoptotic rate of K562 cells ([5]; 1 µM): 1.39%; apoptotic rate of K562 cells ([5]; 2 µM): 3.36%; apoptotic rate of K562 cells ([5]; 4 µM): 19.75%; IC50 [6]: 4850 ± 230 nM; IC50 [7]: 3590 ± 240 nM
14 | COc1cc(N2CCC(N3CCN(C)CC3)CC2)ccc1Nc1ncc(Cl)c(Nc2ccccc2P(C)(C)=O)n1 [Brigatinib] |  |  | GI50 [3]: 4 nM; GI50 [4]: 10 nM

More lines, main results first:

Row | HDACs percentage inhibitory rate [1] | SMILES | inhibition at 1 µM [2] | other results
15 | 40.93 ± 0.50% | O=C(NO)c1cnc(N2CCN(c3ncc(Cl)c(Nc4ccc(-c5ccccc5)cc4)n3)CC2)nc1 [Compound L22, 2–(4-(4-([1,1′-biphenyl]-4-ylamino)-5-chloropyrimidin-2-yl)piperazin-1-yl)-N-hydroxypyrimidine-5-carboxamide] | 37.1 ± 2.11% | 
16 | 46.80 ± 1.07% | O=C(NO)c1ccc(N2CCN(c3ncc(Cl)c(Nc4ccc(-c5ccccc5)cc4)n3)CC2)cc1 [Compound L14, 4–(4–(4-([1,1′-biphenyl]-4-ylamino)-5-chloropyrimidin-2-yl)piperazin-1-yl)-N-hydroxybenzamide] | 35.2 ± 1.21% | 
17 | 58.95 ± 0.74% | COc1ccc(Nc2nc(N3CCN(c4ncc(C(=O)NO)cn4)CC3)ncc2Cl)cc1OC [Compound L21, 2–(4-(5-chloro-4-((3,4-dimethoxyphenyl)amino)pyrimidin-2-yl)piperazin-1-yl)-N-hydroxypyrimidine-5-carboxamide] | 62.6 ± 2.45% | 
18 | 47.98 ± 1.54% | Cc1ccc(Nc2nc(N3CCN(c4ccc(C(=O)NO)cc4)CC3)ncc2Cl)cc1 [Compound L2, 4–(4-(5-chloro-4-(p-tolylamino)pyrimidin-2-yl)piperazin-1-yl)-N-hydroxybenzamide] | 43.9 ± 0.81% | 
19 | 54.51 ± 3.05% | O=C(NO)c1ccc(N2CCN(c3ncc(Cl)c(Nc4ccc(I)cc4)n3)CC2)cc1 [Compound L17, 4-(4-(5-chloro-4-((4-iodophenyl)amino)pyrimidin-2-yl)piperazin-1-yl)-N-hydroxybenzamide] | 56.4 ± 2.16% | 
20 | 59.82 ± 4.01% | O=C(NO)c1ccc(N2CCN(c3ncc(Cl)c(Nc4ccc(Br)cc4)n3)CC2)cc1 [Compound L11, 4–(4–(4-((4-bromophenyl)amino)-5-chloropyrimidin-2-yl)piperazin-1-yl)-N-hydroxybenzamide] | 60.9 ± 0.21% | 
21 | 53.89 ± 3.35% | O=C(NO)c1ccc(N2CCN(c3ncc(Cl)c(Nc4ccc(F)cc4)n3)CC2)cc1 [Compound L4, 4–(4-(5-chloro-4-((4-fluorophenyl)amino)pyrimidin-2-yl)piperazin-1-yl)-N-hydroxybenzamide] | 58.2 ± 1.05% | 
22 | 52.44 ± 1.44% | O=C(NO)c1ccc(N2CCN(c3ncc(Cl)c(Nc4ccc(Cl)cc4)n3)CC2)cc1 [Compound L13, 4–(4-(5-chloro-4-((4-chlorophenyl)amino)pyrimidin-2-yl)piperazin-1-yl)-N-hydroxybenzamide] | 54.1 ± 2.34% | 
23 | 50.54 ± 2.27% | O=C(NO)c1ccc(N2CCN(c3ncc(Cl)c(Nc4ccccc4)n3)CC2)cc1 [Compound L1, 4–(4-(5-chloro-4-(phenylamino)pyrimidin-2-yl)piperazin-1-yl)-N-hydroxybenzamide] | 30.7 ± 0.32% | 
24 | 50.54 ± 0.21% | CCc1ccc(Nc2nc(N3CCN(c4ccc(C(=O)NO)cc4)CC3)ncc2Cl)cc1 [Compound L3, 4–(4-(5-chloro-4-((4-ethylphenyl)amino)pyrimidin-2-yl)piperazin-1-yl)-N-hydroxybenzamide] | 19.5 ± 0.06% | 
